The values below come from patent publication US6723741B2, “Benzimidazoles and benzothiazoles and uses thereof” (Synaptic Pharmaceutical Corporation, priority 1996, dated 2004).

Where two headings read alike, the source gives them in different places.

The target of test [1] is T1, human α2B adrenergic receptor (Homo sapiens, UniProt P18089).
T1 construct: expressed in transfected cells
T1 sequence (P18089 1-450): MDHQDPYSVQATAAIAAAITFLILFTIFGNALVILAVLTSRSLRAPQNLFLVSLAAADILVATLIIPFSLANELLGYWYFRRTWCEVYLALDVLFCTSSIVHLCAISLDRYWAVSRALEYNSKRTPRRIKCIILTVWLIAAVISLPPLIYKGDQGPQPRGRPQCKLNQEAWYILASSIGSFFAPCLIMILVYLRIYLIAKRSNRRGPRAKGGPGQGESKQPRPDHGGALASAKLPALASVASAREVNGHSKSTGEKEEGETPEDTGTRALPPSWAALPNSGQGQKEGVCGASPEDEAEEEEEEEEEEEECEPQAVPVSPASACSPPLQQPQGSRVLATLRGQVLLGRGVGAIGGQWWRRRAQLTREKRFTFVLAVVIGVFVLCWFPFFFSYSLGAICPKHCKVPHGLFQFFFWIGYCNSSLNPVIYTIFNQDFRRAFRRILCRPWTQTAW
As to the kind of experiment: Radioligand binding assay, [3H]rauwolscine competition.

In test [2] the target is T2, human α1A adrenergic receptor (Homo sapiens, UniProt P25100).
T2 construct: expressed in transfected cells
T2 sequence (P25100 1-572): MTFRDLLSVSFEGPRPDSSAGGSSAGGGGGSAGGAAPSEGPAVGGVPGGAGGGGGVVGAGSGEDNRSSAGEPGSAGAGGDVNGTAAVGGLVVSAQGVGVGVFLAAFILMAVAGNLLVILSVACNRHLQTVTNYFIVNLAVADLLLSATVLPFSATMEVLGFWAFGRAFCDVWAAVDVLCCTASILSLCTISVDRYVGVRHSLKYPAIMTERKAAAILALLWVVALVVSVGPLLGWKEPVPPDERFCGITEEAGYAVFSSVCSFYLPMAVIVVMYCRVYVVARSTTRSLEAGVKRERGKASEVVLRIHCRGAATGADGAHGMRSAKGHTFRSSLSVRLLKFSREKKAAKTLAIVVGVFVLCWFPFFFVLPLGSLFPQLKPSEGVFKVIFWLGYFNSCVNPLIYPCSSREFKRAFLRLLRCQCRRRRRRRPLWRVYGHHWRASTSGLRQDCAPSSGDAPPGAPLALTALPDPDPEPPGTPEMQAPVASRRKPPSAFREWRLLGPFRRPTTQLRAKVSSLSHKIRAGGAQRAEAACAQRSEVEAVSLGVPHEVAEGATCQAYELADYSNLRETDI
The experiment in a line: Radioligand binding assay, [3H]prazosin competition. The note with it: cloned human α1A (old nomenclature; = α1D), LM(tk-) cell membranes, read-out: pKi Alpha-1 A (converted). As for the experimental part:
Equilibrium competition binding assays were performed with membrane preparations from cultured LM(tk^−) cells stably transfected with the cloned human alpha adrenoreceptor subtypes except for α2b, which was expressed in Y-1 cells, using [^3H] prazosin for α1 receptors and [^3H] rauwolscine for α2 receptors. Further details of pharmacological evaluations of claimed compounds are described in Example 21.
The cloned human alpha-1 adrenergic receptor subtypes referred to throughout this application as α1A, α1B, and α1C have recently been assigned new subtype designations by the IUPHAR Nomenclature Committee as outlined in the 1995 Receptor and Ion Channel Nomenclature Supplement (Watson and Girdlestone, 1995). In the new nomenclature system the cloned human α1A receptor referred to herein was given the appellation “α1D,” while the cloned human α1C receptor referred to herein was given the appellation “α1A”. However, throughout this application and the supporting tables and figures the old nomenclature will be used to describe the cloned human alpha-1 adrenergic receptor subtypes. The old nomenclature is used throughout this application because stable cell lines expressing the cloned human alpha-1 adrenergic receptors were produced and deposited with the ATCC according to the Budapest Treaty for the Deposit of Microorganisms, under designations assigned before the nomenclature change.
The construct involved the ligation of partial overlapping human lymphocyte genomic and hippocampal cDNA clones: 5′ sequences were contained on a 1.2 kb SmaI-XhoI genomic fragment (the vector-derived BamHI site was used for subcloning instead of the internal insert-derived SmaI site) and 3′ sequences were contained on 1.3 kb XhoI-ClaI cDNA fragment (the ClaI site was from the vector polylinker). Stable cell lines were produced and selected as described above.
Transfected cells from culture flasks were scraped into 5 mL of 5 mM Tris-HCl, 5 mM EDTA, pH 7.5, and lysed by sonication. The cell lysates were centrifuged at 1000 rpm for 5 min at 4° C., and the supernatant was centrifuged at 30,000×g for 20 min at 4° C. The pellet was suspended in 50 mM Tris-HCl, 1 mM MgCl2, and 0.1% Ascorbic acid at pH 7.5. Binding of α2 antagonist [^3H] rauwolscine ([…]) to membrane preparations of LM(tk−) cells was done in a final volume of 0.25 mL and incubated at 37° C. for 20 min. Nonspecific binding was determined in the presence of 10 μM phentolamine. The reaction was stopped by filtration through GF/B filters using a cell harvester.

The target in test [3] is T3, human α2C adrenergic receptor (Homo sapiens, UniProt P18825).
T3 construct: The entire coding region of α2C (1383 bp), including 2 bp of 5′ UT and 400 bp of 3′ UT; expressed in transfected cells
T3 sequence (P18825 1-462): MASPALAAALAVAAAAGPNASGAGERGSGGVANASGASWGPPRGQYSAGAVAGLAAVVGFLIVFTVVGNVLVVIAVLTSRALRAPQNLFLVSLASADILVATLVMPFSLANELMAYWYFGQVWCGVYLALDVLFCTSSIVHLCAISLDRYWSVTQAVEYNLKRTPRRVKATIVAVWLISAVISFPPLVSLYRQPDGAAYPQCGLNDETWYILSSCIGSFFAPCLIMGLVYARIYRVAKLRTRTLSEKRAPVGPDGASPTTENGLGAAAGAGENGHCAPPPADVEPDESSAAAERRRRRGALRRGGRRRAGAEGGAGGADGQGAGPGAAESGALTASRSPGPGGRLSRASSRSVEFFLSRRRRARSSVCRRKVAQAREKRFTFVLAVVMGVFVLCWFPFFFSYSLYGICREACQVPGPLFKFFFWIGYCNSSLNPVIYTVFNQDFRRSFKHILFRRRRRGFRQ
The experiment in a line: Radioligand binding assay, [3H]rauwolscine competition.

The target in test [4] is T3, human α2C adrenergic receptor. As to the kind of experiment: Agonist activity: inhibition of forskolin-stimulated cAMP synthesis. Format: cell-based. To be noted: for EC50: inhibition of forskolin-stimulated cAMP, stably transfected cells expressing human α2C, read-out: pEC50 Alpha-2 C (converted); for I.A (Intrinsic Activity) Alpha-2 C: maximum activity relative to maximum activity induced by norepinephrine, human α2C.

Test [5] addresses T1, human α2B adrenergic receptor. The test is described as above. The format is cell-based. To be noted: for I.A (Intrinsic Activity) Alpha-2 B: maximum activity relative to maximum activity induced by norepinephrine, human α2B.
The mark [6] stands for this setting: inhibition of forskolin-stimulated cAMP, stably transfected cells expressing human α2B, read-out: pEC50 Alpha-2 B (converted).

`Brc1cc(NC2=NCCN2)cc2cc[nH]c12` [Example 2, 7-Bromo-5-(2-imidazolin-2-ylamino)indole]: the Ki in test [1] is 2.88 nM; in test [2] it was 2.88 nM; in test [3] it was 12.9 nM. Besides, the EC50 was 0.407 nM in test [4] and 1.91 nM in test [5] (setting [6]). The “I.A (Intrinsic Activity) Alpha-2 C” value in test [4] came to 1.00. Besides, the “I.A (Intrinsic Activity) Alpha-2 B” value in test [5] is 0.75.
As to `N#Cc1cc(NC2=NCCN2)cc2cc[nH]c12` [Example 5, 7-Cyano-5-(2-imidazolin-2-ylamino)indole], the results for the Ki in test [1], in test [2] and in test [3] were 15.5 nM, 162 nM and 43.7 nM, respectively. In addition, the values for the EC50 in test [4] and in test [5] (setting [6]) were 0.589 nM and 316 nM, respectively. Besides, in test [4], the “I.A (Intrinsic Activity) Alpha-2 C” value stood at 1.00. In addition, the “I.A (Intrinsic Activity) Alpha-2 B” value in test [5] came to 0.60.
As to `CC(=O)c1cc(NC2=NCCN2)cc2cc[nH]c12` [Example 6, 7-Acetyl-5-(2-imidazolin-2-ylamino)indole], the Ki in test [1] was 45.7 nM; in test [2] it was 93.3 nM; in test [3], 117 nM. Besides, the EC50 in test [4] is 40.7 nM; in test [5] (setting [6]) it was 81.3 nM. Further, the “I.A (Intrinsic Activity) Alpha-2 C” value in test [4] came out at 0.90. Also, the “I.A (Intrinsic Activity) Alpha-2 B” value in test [5] is reported as 0.70.
Take `c1nc2cc(NC3=NCCN3)ccc2s1` [Example 13, 5-(2-Imidazolin-2-ylamino)benzothiazole]: the Ki is 4.57 nM in test [1], 186 nM in test [2] and 20.4 nM in test [3]. Moreover, the EC50 in test [4] was 0.603 nM; in test [5] (setting [6]) it was 10.2 nM. Besides, the “I.A (Intrinsic Activity) Alpha-2 C” value in test [4] is recorded as 1.00. Further, the “I.A (Intrinsic Activity) Alpha-2 B” value in test [5] turned out to be 0.82.
`c1nc2ccc(NC3=NCCN3)cc2s1` [Example 14, 6-(2-Imidazolin-2-ylamino)benzothiazole]: the figures for the Ki in test [1] and in test [2] were 14.1 nM and 1700 nM, respectively. Also, the “I.A (Intrinsic Activity) Alpha-2 C” value in test [4] came to 1.00. The compound further showed an EC50 in test [5] of 14.1 nM. The “I.A (Intrinsic Activity) Alpha-2 B” value in test [5] is recorded as 0.47.
As for `c1nc2ccc(NC3=NCCS3)cc2s1` [Example 15, 6-(2-Thiazolin-2-ylamino)benzothiazole], the Ki is 162 nM in test [1] (cloned human α2B, Y-1 cell membranes, [3H]rauwolscine, read-out: pKi Alpha-2 B (converted)) and 6030 nM in test [2]. In addition, the “I.A (Intrinsic Activity) Alpha-2 C” value in test [4] came out at 0.88. In test [5] (setting [6]), the EC50 was 138 nM. Besides, the “I.A (Intrinsic Activity) Alpha-2 B” value in test [5] is given as 0.57.
